Source: publication PMC3393750, “Small Molecule Inhibitors of the LEDGF Site of Human Immunodeficiency Virus Integrase Identified by Fragment Screening and Structure Based Design” (PLoS ONE, 2012)
Where two headings read alike, the source gives them in different places.

Legend:
[1] = system: HIV-1 with IN N155H/E92Q (NHEQ); experiment: Single-round infectivity assay in 293T cells, IN NHEQ mutant; format: cell-based; settings: Human immunodeficiency virus 1, HEK-293T, read-out: EC50 cell infectivity assay, IN NHEQ
Description: (§1) Single-round infectivity assays were performed with 293T cells. […]. […] Culture supernatants containing VSV-G pseudotyped virions were harvested 64 hours post-transfection, clarified by centrifugation to remove cell debris, and stored at −80°C. HIV IN mutations known to confer resistance to published IN inhibitors were prepared by site directed mutagenesis of the pol (IN) gene in a shuttle vector which contained the majority of the HIV gag and pol sequence. The mutated IN coding region was then sequence verified and exchanged for the wild-type coding sequence in the pHIV env-Luc reporter virus plasmid. Single round infection assays were conducted in 293T cells seeded in 96 well plates 16 hours prior to compound addition. Compounds were pre-incubated with cells for 4 hours at 37°C followed by the addition of sufficient virus to generate approximately 10,000 Luciferase light units in the absence of compound. Luciferase readout was measured 48 hours post-infection using the Bright-Glo™ reagent (Promega) according to the manufacturer’s instructions.

[2] = system: HIV-1 with IN Q148H/G140S (QHGS); experiment: Single-round infectivity assay in 293T cells, IN QHGS mutant; format: cell-based; settings: Human immunodeficiency virus 1, HEK-293T, read-out: EC50 cell infectivity assay, IN QHGS
Description: as §1

HIV-1 with wild type IN = experiment: Single-round infectivity assay in 293T cells, wild type IN; format: cell-based; settings: Human immunodeficiency virus 1, HEK-293T, read-out: EC50 cell infectivity assay, wild type IN
Description: as §1

[3] = molecular target: T1, His6-tagged HIV IN / Flag-tagged LEDGF interaction (Human immunodeficiency virus type 1 group M subtype B, UniProt P12497); experiment: IN-LEDGF AlphaScreen (AS) assay; format: binding, HIV-1; settings: 30 nM IN, 30 nM Flag-LEDGF, 30°C
T1 construct: Hexa-His tagged full length HIV IN was expressed and purified as follows; made in house; host or cells: E. coli BL21(DE3), pET28b(+)
Description: (§2) For the IN-LEDGF AS assay, compound dilutions and His6-tagged IN (30 nM final concentration) were initially incubated together in 10 µl of reaction buffer (25 mM Tris-Cl pH 7.5, 25 mM NaCl, 5 mM MnCl2, 5 mM MgCl2, 5 mM BME, 50 µg/ml bovine serum albumin and 0.05% (v/v) Tween-20) for 10 min at room temperature in AlphaPlate™-384 SW plates (Perkin-Elmer). Subsequently, 10 µl reaction buffer containing Flag-tagged LEDGF (30 nM final concentration), AS Ni-chelate donor beads (Perkin-Elmer; 5 µg/ml final) and AlphaLISA anti-FLAG acceptor beads (Perkin-Elmer; 5 µg/ml final) were added and protein association allowed to occur for 1 hour in the dark at 30°C before emission from the donor beads was measured using a PHERAstar FS plate-reader (BMG Labtech). Counter screen assays to ensure the compounds were not inhibiting the binding of the His or FLAG tags to the beads or quenching of the signal, were performed under the same reaction conditions except that a Flag-His6 fusion protein was used (20 nM final) instead of individual His6-tagged IN and Flag-tagged LEDGF proteins, and the initial 10 min incubation at room temperature was omitted.

[4] = molecular target: T2, HIV integrase catalytic core domain core3H (C56S, F139D, F185H) (Human immunodeficiency virus type 1 group M subtype B, UniProt P12497, C1203S/F1286D/F1332H); experiment: SPR binding to core3H; settings: construct not given
T2 construct: catalytic core domain (CCD) IN (residues 50 to 210) containing the mutations C56S, F139D and F185H (core3H); made in house; host or cells: E. coli, pET28b(+)
Description: Core3H and core4H proteins (∼3×10^−8 moles) were “minimally” biotinylated on ice for 2 hours using an equimolar concentration of EZ-Link® Sulfo-NHS-LC-LC-Biotin (Pierce). To remove unreacted biotin reagent, biotinylated proteins were passed through a Superdex 75 (10/300 GL) column equilibrated in ‘SPR capture’ buffer (50 mM HEPES pH 7.4, 150 mM NaCl, 0.05% (v/v) Tween20, 5 mM DTT, 10 mM MgCl2). The eluted proteins were stored frozen in 50 µl aliquots at −70°C. Streptavidin (Sigma) was immobilized at 25°C onto a CM7 sensor chip (GE Healthcare) docked in a Biacore T200 upgrade instrument (GE Healthcare) using a previously described procedure resulting in immobilization levels of approximately 12000 RU of protein being coupled in all flow cells. The biotinylated core IN proteins were captured onto a Streptavidin chip surface in SPR capture buffer by injecting at 5 µL/min for 5 min over a single flow cell, typically resulting in immobilization of approximately 2300 RU of target protein. A minimally-biotinylated tyrosine kinase domain of CSF-1-R was captured (∼4300 RU) in a separate flow cell to provide for an unrelated negative control. […] All SPR binding experiments were performed at 20°C in SPR binding buffer (50 mM HEPES pH 7.4, 150 mM NaCl, 0.05% (v/v) Tween20, 5 mM DTT, 10 mM MgCl2, 5% (v/v) DMSO). Small molecules stock solutions were serially diluted (2-fold) in SPR binding buffer and injected for 30 sec contact time at 60 µL/min and then allowed to dissociate for 60 sec. The entire concentration series for each compound was performed in triplicate.
Raw sensorgram data were processed, solvent corrected and double referenced using Scrubber software (BioLogic Software, Australia). For easy comparison between data sets, all experiments were normalized using a normalization formula of Giannetti et al. To determine the binding affinity (KD), responses at equilibrium for each analyte were fitted to a 1∶1 steady state affinity model available within Scrubber.

HIV-1NL4-3 = experiment: Virus infectivity assay (p24) in HuT78 cells; format: cell-based; settings: Human immunodeficiency virus 1, p24 production
Description: (§3) HuT78 cells were seeded into 96 well microtiter plates at 50,000 cells per 50 µl per well in RF-10 containing 2 µg/ml polybrene (RF-10/2). Compounds were prepared to 4× final concentration in RF-10/2, and 30 µl was added to cells. HIV-1NL4–3 (40 µl in RF-10/2 containing 1600 plaque forming units (pfu)) was added to each well or 40 µl of RF-10/2 was added to the negative controls, and when assaying compound cytotoxicity. pfu were determined by titrating virus stocks on HT4LacZ cells as described by Rocancourt et al. After 24 hours, an additional 90 µl of media or media containing 1× compound was added to each well. At 4 days post-infection, 100 µl of media was removed from each well and replaced with 100 µl of fresh media with or without compound. 48 hours later supernatants were harvested and levels of extracellular p24 determined. Supernatants were diluted 1 in 10,000 and p24 levels assayed using the Vironostika p24 assay kit.

[5] = Cell toxicity counter screen of virus infectivity assay; format: cell-based; settings: human, HuT78 cells
Description: as §3

[6] = system: LEDGF interaction with IN; parameters: method as in PMID 20473303; settings: read-out: AS IC50; cited from earlier work
HIV-1 [7] = system: HIV-1; parameters: method as in PMID 20473303; settings: MT-4 cells; read-out: EC50 HIV-1 infection of MT-4 cells; cited from earlier work
HIV IN [8] = molecular target: T3, HIV IN (Human immunodeficiency virus type 1 group M subtype B, UniProt P12497); settings: read-out: IC50 inhibition of strand transfer activity of HIV IN; cited from earlier work
HIV-1 [9] = system: HIV-1; parameters: method as in PMID 20473303; settings: PBMC cells; read-out: EC50 HIV-1 infection of PBMC cells; cited from earlier work
Flag-His6 fusion protein = experiment: AlphaScreen counter screen; settings: Flag-His6 fusion protein 20 nM
Description: as §2, with “omitted. The specificity of FLAG-LEDGF for IN binding was confirmed by competing the FLAG-LEDGF with untagged LEDGF. At a 1∶1 molar ratio with FLAG-LEDGF, untagged LEDGF reduced the AS signal by 50%.” for “omitted.”

HIV IN [10] = molecular target: T3, HIV IN; experiment: Strand transfer assay which did not contain LEDGF; format: biochemical; settings: without LEDGF; data not shown
LEDGF site of HIV IN = system: LEDGF site of HIV IN; parameters: method as in PMID 21767569; settings: read-out: IC50 AS assay for binding at the LEDGF site; cited from earlier work
HIV IN [11] = molecular target: T3, HIV IN; settings: read-out: IC50 active site directed strand transfer assay; cited from earlier work
HIV IN [12] = molecular target: T3, HIV IN; settings: read-out: IC50 strand transfer; cited from earlier work
HIV IN [13] = molecular target: T3, HIV IN; settings: cited from earlier work

For `Cc1nnc(C(=O)NC(C)(C)c2nc(C(=O)NCc3ccc(F)cc3)c(O)c(=O)n2C)o1` [raltegravir, reference compound], the EC50 [1] was greater than 1 µM, the EC50 [2] was greater than 1 µM and the EC50 (HIV-1 with wild type IN) was 0.01 µM.

For `O=C(O)c1c(/C=C2\c3ccccc3CC2O)ccc2c1OCO2` (stereo not shown) [Compound 3], the IC50 [3] was 270 µM.

In the case of `O=C(O)c1c(CN2Cc3ccccc3C(=O)N(Cc3ccccc3)C2)ccc2c1OCO2` [Compound 4], the “binding in the SPR assay (in words)” value [4] is reported as “did not bind”, the IC50 [3] is reported as 110 µM and the EC50 (HIV-1NL4-3) is reported as 275 µM. The CC50 at 6 days [5] was 265 µM.

In the case of `CN(Cc1ccccc1C(=O)NCC1CCCCC1)Cc1ccc2c(c1C(=O)O)OCO2` [Compound 8], the “binding in the SPR assay (in words)” value [4] is reported as “loss of SPR activity” and the IC50 [3] is reported as 100 µM.

In the case of `CCCC(C(=O)O)c1c(C)nc2ccc(Cl)cc2c1-c1ccccc1` (stereo not shown) [LEDGIN-6], the IC50 [6] is listed as 1.37 µM, the EC50 (HIV-1 [7]) is listed as 2.73 µM and the IC50 (HIV IN [8]) is listed as 19.5 µM. The EC50 (HIV-1 [9]) was 3.45 µM.

Molecule `COc1ccc(CNC(=O)c2ccccc2CN(C)Cc2ccc3c(c2C(=O)O)OCO3)cc1` [Compound 7] has an IC50 [3] of 220 µM.

In the case of `COc1ccc(CNC(=O)c2ccccc2CNCc2ccc3c(c2C(=O)O)OCO3)cc1` [Compound 6], the “binding in the SPR assay (in words)” value [4] is reported as “binding could not be detected” and the IC50 [3] is reported as 270 µM.

In the case of `COc1ccc(CN2CN(Cc3ccc4c(c3C(=O)O)OCO4)Cc3ccccc3C2=O)cc1` [Compound 5], the IC50 [3] is reported as 600 µM.

For `C=CCN(Cc1ccccc1C(=O)NC(CCC)c1ccc(OC)cc1)Cc1ccc2c(c1C(=O)O)OCO2` (stereo not shown) [Compound 10], the IC50 (Flag-His6 fusion protein) was 175 µM, the “activity in strand transfer assay” value (HIV IN [10]) was “inactive” and the IC50 [3] was 29 µM.

In the case of `O=C(O)C(O)=CC(=O)c1cn(Cc2ccc(F)cc2)c2cccc(O)c12` [CHI-1043, 4-[1-(4-Fluorobenzyl)-4-hydroxy-1H-indol-3-yl]-2-hydroxy-4-oxobut-2-enoic acid], the IC50 (LEDGF site of HIV IN) is listed as 36 µM and the IC50 (HIV IN [11]) is listed as 0.14 µM.

With `C=CCN(Cc1ccccc1C(=O)NC(c1ccc(OC)cc1)c1ccc(OC)cc1)Cc1ccc2c(c1C(=O)O)OCO2` [Compound 11] the EC50 [1] was 37 µM, the IC50 (Flag-His6 fusion protein) was 145 µM and the “activity in strand transfer assay” value (HIV IN [10]) was “inactive”. It also gave an EC50 [2] of 54 µM, an EC50 (HIV-1NL4-3) of 29 µM and a CC50 at 6 days [5] greater than 100 µM.

In the case of `O=C(NCC1CCCCC1)c1cc(S(=O)(=O)N2CCCCC2)cc(O)c1O` [N-(cyclohexylmethyl)-2,3-dihydroxy-5-(piperidin-1-ylsulfonyl) benzamide], the IC50 (HIV IN [12]) is listed as 19 µM and the IC50 (HIV IN [13]) is listed as 8 µM.

For `O=C1Cc2ccccc2/C1=C\c1ccc2c(c1C(=O)O)OCO2` [Compound 2], the IC50 [3] was 200 µM.

With `C=CCN(Cc1ccccc1C(=O)NCc1ccc(OC)cc1)Cc1ccc2c(c1C(=O)O)OCO2` [Compound 9] the “binding in the SPR assay (in words)” value [4] was “retained SPR activity” and the IC50 [3] was 815 µM.
